# How the values were obtained:
# [1] = test system: dermis white adipose tissue; experiment: SD rat skin penetration test: histological analysis (H&E, Masson's trichome staining); assay type: in vivo, SD rats; details: 1%, 500 μL subcutaneous injection
# Source text: The interscapular region (back of the neck near the ear) of 10-week-old SD rats (280-350 g) with sufficient subcutaneous adipose tissue was shaved and anesthetized. […].
# Then, tissues (skin, subcutaneous tissue) of the interscapular region were collected, fixed, and subjected to H&E staining and Masson's trichome staining. Tissue changes were investigated through microscopic observation.
# [2] = SD rat skin penetration test: DCA distribution in subcutaneous tissue, skin and plasma; design: species or system SD rats; details: in vivo, sc
# Source text: The interscapular region (back of the neck near the ear) of 10-week-old SD rats (280-350 g) with sufficient subcutaneous adipose tissue was shaved and anesthetized.
# [3] = test system: 3T3-L1 preadipocytes; experiment: Preadipocyte cytotoxicity (cell counting kit-8); assay type: cell-based; details: treated 4 hours
# [4] = cited from earlier work
smiles,measurement,setting,value
C[C@H](CCC(=O)O)[C@H]1CC[C@H]2[C@@H]3CC[C@@H]4C[C@H](O)CC[C@]4(C)[C@H]3C[C@H](O)[C@]12C [deoxycholic acid],H&E staining: tissue change,[1],severe tissue damage was observed
same,Masson's trichome staining: tissue change,[1],hematoma and edema occurred in the tissue
same,amount of DCA in subcutaneous tissue,[2],gradually decreased
same,preadipocyte cytotoxicity (comparison between materials),[3]; 0.04%,the same
same,survival rate of preadipocytes,"[3]; 0.08%, absorbance 450 nm",24.6%
same,solubility in water,[4],0.024%
